Measurements taken from ChEMBL document CHEMBL4014265, “Crassins A-H, Diterpenoids from the Roots of Croton crassifolius” (J Nat Prod, 2017).

Assays:
A549 [1] = assay: Cytotoxicity against human A549 cells assessed as growth inhibition after 72 hrs by SRB assay; assay type: functional, cell-based; conditions: A549, 72 h
HL-60 [2] = assay: Cytotoxicity against human HL60 cells assessed as growth inhibition after 72 hrs by MTT assay; assay type: functional, cell-based; conditions: HL-60, 72 h
A549 [3] = assay: Cytotoxicity against human A549 cells assessed as growth inhibition at 20 uM after 72 hrs by SRB assay relative to control; assay type: functional; conditions: A549, 72 h, read-out: GI
HL-60 [4] = assay: Cytotoxicity against human HL60 cells assessed as growth inhibition at 20 uM after 72 hrs by MTT assay relative to control; assay type: functional; conditions: HL-60, 72 h, read-out: GI

| SMILES | IC50 (A549 [1]) [µM] | IC50 (HL-60 [2]) [µM] | inhibition of growth at 20 µM (A549 [3]) [%] | inhibition of growth at 20 µM (HL-60 [4]) [%] |
| --- | --- | --- | --- | --- |
| COC(=O)[C@]1(C)CCCC2=C1CC[C@@H](C)[C@]2(C)CCC1=CC(=O)O[C@H]1O | 5.2 | 11.8 | > 50 | > 50 |
| COC(=O)[C@@]1(C)CC(=O)C2=C(c3ccoc3)C[C@]3(C)C2=C1CC[C@H]3C | 8.4 | 10.5 | > 50 | > 50 |
